# Reference: the kinase profiling compilation of Christmann-Franck et al. (2016)
# What was measured:
# Test in all cases: KINOMEscan competition binding
# Conditions in all cases: compound 10.0 µM
# ZAP70 (human) = ZAP70 (human) (UniProt P43403)
# MAPK15 (human) = MAPK15 (human) (UniProt Q8TD08)
# PLK4 (human) = PLK4 (human) (UniProt O00444)
# ACVR2A (human) = ACVR2A (human) (UniProt P27037)
# CHEK1 (human) = CHEK1 (human) (UniProt O14757)
# MAP4K1 (human) = MAP4K1 (human) (UniProt Q92918)
# RIOK3 (human) = RIOK3 (human) (UniProt O14730)
# [1] = tested on: EGFR (human), P00533 [752-759 del]
# CDC42BPB (human) = CDC42BPB (human) (UniProt Q9Y5S2)
# CDK18 (human) = CDK18 (human) (UniProt Q07002)
# MAPK12 (human) = MAPK12 (human) (UniProt P53778)
# AURKB (human) = AURKB (human) (UniProt Q96GD4)
# DCLK1 (human) = DCLK1 (human) (UniProt O15075)
# [2] = molecular target: TYK2 JH1 catalytic (human) (UniProt P29597)
# TXK (human) = TXK (human) (UniProt P42681)
# PRKX (human) = PRKX (human) (UniProt P51817)
# EIF2AK2 (human) = EIF2AK2 (human) (UniProt P19525)
# PIK3CB (human) = PIK3CB (human) (UniProt P42338)
# PTK2 (human) = PTK2 (human) (UniProt Q05397)
# CAMK1G (human) = CAMK1G (human) (UniProt Q96NX5)
# SGK3 (human) = SGK3 (human) (UniProt Q96BR1)
# TRPM6 (human) = TRPM6 (human) (UniProt Q9BX84)
# ALK (human) = ALK (human) (UniProt Q9UM73)
# [3] = tested on: EGFR (human), P00533 [T790M/L858R]
# TYRO3 (human) = TYRO3 (human) (UniProt Q06418)
# CDK5 (human) = CDK5 (human) (UniProt Q00535)
# CSNK2A2 (human) = CSNK2A2 (human) (UniProt P19784)
# MAP2K2 (human) = MAP2K2 (human) (UniProt P36507)
# STK33 (human) = STK33 (human) (UniProt Q9BYT3)
# [4] = molecular target: JAK1 JH1 catalytic (human) (UniProt P23458)
# EGFR (human) = EGFR (human) (UniProt P00533)
# MAP4K3 (human) = MAP4K3 (human) (UniProt Q8IVH8)
# IRAK4 (human) = IRAK4 (human) (UniProt Q9NWZ3)
# CAMK2A (human) = CAMK2A (human) (UniProt Q9UQM7)
# ROCK2 (human) = ROCK2 (human) (UniProt O75116)
# STK10 (human) = STK10 (human) (UniProt O94804)
# BLK (human) = BLK (human) (UniProt P51451)
# SIK2 (human) = SIK2 (human) (UniProt Q9H0K1)
# TBK1 (human) = TBK1 (human) (UniProt Q9UHD2)
# ADCK4 (human) = ADCK4 (human) (UniProt Q96D53)
# TXK (human), sequence (P42681 whole entry, looked up): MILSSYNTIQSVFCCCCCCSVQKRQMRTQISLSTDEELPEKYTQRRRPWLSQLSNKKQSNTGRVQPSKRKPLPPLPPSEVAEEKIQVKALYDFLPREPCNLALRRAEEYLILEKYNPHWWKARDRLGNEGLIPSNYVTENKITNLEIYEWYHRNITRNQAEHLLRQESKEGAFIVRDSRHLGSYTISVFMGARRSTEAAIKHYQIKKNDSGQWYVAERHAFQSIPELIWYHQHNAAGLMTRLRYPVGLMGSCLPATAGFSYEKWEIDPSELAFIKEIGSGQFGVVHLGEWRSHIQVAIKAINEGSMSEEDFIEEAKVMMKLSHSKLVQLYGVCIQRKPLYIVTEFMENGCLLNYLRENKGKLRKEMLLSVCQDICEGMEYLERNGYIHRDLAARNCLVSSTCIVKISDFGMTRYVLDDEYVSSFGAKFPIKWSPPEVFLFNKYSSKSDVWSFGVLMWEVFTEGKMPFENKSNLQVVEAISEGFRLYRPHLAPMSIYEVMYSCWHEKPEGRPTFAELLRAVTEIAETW
# BLK (human), sequence (P51451 whole entry, looked up): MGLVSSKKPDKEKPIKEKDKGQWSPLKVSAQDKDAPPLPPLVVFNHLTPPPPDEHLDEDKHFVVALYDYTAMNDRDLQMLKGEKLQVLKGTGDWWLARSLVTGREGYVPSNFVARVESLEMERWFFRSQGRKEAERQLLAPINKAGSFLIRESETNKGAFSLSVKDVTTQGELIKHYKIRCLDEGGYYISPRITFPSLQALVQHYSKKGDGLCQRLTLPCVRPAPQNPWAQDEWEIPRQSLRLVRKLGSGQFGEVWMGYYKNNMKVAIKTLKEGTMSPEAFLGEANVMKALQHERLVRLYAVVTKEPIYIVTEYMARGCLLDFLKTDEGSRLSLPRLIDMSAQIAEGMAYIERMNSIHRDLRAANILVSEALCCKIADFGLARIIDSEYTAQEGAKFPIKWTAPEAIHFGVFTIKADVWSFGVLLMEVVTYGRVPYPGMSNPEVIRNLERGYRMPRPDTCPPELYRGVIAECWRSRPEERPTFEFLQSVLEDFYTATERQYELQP
# TBK1 (human), sequence (Q9UHD2 whole entry, looked up): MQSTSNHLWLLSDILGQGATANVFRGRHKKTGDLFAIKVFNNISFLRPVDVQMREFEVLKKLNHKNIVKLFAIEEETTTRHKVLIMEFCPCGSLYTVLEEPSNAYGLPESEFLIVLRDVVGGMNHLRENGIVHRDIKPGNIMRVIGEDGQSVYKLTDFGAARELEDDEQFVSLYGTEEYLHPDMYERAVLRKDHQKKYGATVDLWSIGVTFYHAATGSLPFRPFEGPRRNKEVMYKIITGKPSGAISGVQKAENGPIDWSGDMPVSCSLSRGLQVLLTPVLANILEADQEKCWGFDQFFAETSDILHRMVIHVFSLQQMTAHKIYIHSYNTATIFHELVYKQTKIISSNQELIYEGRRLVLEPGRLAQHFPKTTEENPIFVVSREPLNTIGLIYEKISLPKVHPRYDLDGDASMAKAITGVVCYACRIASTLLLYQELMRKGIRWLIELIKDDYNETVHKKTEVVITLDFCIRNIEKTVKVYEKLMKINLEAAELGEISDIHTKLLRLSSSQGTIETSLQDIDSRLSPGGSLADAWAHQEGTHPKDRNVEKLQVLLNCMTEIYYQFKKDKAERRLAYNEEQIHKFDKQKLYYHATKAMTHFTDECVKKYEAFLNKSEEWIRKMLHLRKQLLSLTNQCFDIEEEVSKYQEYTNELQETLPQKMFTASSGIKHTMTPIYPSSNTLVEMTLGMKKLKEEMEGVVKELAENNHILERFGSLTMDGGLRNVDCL
# ROCK2 (human), sequence (O75116 whole entry, looked up): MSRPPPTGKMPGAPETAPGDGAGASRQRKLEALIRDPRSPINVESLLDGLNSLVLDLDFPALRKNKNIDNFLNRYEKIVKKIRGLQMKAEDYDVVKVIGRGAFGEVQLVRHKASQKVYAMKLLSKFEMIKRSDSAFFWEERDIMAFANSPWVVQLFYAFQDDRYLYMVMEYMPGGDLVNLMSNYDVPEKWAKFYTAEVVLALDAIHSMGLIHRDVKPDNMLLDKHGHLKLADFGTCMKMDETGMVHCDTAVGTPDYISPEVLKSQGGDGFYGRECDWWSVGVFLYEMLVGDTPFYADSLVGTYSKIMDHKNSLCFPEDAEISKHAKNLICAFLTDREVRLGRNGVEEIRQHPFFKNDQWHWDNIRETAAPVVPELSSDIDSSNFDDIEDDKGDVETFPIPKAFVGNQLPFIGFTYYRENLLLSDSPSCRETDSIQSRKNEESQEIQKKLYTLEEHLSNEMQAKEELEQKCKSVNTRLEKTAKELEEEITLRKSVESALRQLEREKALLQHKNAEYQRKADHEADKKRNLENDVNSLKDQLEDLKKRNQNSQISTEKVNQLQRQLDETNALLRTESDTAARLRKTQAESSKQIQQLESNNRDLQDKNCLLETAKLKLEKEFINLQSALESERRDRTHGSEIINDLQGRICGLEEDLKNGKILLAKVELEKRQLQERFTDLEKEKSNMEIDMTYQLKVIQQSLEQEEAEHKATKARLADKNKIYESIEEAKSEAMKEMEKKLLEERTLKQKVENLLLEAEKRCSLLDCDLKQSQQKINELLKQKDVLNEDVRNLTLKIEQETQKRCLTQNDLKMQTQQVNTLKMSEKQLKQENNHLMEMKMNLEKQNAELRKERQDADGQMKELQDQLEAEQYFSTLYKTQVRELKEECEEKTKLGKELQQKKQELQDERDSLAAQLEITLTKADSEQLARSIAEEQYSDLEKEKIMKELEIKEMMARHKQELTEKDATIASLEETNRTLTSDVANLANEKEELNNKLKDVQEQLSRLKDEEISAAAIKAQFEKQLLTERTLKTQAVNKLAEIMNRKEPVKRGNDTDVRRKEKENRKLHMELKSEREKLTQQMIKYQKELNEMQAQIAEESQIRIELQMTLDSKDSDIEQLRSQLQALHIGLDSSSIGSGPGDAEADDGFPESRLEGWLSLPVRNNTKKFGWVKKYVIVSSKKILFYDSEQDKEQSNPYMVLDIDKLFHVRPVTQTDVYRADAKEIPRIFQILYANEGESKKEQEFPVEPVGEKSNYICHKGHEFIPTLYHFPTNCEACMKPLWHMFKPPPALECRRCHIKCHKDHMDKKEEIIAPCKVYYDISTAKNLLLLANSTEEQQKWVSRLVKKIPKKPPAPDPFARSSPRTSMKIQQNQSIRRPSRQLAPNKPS
# ALK (human), sequence (Q9UM73 whole entry, looked up): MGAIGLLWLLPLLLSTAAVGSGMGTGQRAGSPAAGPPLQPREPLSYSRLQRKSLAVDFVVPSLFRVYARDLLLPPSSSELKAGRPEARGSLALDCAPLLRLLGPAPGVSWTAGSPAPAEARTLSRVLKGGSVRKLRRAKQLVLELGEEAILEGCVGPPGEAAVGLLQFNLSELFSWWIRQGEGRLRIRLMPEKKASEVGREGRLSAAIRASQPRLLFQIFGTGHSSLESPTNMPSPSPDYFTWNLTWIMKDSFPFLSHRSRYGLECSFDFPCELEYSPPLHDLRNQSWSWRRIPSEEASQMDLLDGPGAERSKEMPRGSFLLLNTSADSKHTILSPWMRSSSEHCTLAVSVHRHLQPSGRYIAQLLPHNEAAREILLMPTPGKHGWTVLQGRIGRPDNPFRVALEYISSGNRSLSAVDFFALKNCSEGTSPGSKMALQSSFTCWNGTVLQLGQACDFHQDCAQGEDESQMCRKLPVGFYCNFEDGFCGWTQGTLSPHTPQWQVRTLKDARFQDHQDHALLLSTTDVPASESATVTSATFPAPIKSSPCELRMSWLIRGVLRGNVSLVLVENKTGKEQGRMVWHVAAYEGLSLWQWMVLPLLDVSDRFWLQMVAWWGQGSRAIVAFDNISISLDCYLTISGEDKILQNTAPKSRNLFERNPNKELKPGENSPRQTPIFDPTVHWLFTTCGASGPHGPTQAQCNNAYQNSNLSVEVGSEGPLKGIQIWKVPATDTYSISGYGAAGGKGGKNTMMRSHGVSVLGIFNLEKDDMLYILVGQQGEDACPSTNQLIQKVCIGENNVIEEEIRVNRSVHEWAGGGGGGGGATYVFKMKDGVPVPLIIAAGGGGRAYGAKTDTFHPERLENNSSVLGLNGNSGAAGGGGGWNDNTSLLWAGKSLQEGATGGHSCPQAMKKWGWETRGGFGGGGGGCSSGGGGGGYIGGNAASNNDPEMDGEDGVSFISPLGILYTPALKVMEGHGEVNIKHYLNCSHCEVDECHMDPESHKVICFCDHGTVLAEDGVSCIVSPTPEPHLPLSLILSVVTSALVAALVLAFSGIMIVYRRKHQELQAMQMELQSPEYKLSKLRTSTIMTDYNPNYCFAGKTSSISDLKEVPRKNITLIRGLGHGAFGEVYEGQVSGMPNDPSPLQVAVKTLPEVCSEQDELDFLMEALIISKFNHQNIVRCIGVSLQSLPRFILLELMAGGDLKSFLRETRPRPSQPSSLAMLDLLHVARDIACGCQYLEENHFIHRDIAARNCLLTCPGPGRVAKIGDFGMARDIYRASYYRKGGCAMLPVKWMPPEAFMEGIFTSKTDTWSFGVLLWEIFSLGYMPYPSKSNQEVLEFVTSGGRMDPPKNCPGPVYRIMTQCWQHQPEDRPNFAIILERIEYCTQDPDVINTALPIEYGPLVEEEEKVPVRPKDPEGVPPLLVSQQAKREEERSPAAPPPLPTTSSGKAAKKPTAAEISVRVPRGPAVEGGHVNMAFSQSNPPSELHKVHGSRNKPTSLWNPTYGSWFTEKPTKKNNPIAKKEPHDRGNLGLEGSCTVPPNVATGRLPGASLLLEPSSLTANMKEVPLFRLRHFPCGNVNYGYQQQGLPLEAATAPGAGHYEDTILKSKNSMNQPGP
# CDK5 (human), sequence (Q00535 whole entry, looked up): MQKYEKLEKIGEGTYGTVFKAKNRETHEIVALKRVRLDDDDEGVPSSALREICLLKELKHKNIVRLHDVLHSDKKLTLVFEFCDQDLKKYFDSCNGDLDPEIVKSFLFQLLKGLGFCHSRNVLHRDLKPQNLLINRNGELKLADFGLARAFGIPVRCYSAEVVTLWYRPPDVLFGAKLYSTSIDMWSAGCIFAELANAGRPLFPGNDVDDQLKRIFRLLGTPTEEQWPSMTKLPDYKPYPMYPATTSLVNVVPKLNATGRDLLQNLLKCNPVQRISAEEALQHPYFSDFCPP
SMILES,"kinase still bound, per cent of control (ZAP70 (human)) [%]","kinase still bound, per cent of control (MAPK15 (human)) [%]","kinase still bound, per cent of control (PLK4 (human)) [%]","kinase still bound, per cent of control (ACVR2A (human)) [%]","kinase still bound, per cent of control (CHEK1 (human)) [%]","kinase still bound, per cent of control (MAP4K1 (human)) [%]","kinase still bound, per cent of control (RIOK3 (human)) [%]","kinase still bound, per cent of control [1] [%]","kinase still bound, per cent of control (CDC42BPB (human)) [%]","kinase still bound, per cent of control (CDK18 (human)) [%]","kinase still bound, per cent of control (MAPK12 (human)) [%]","kinase still bound, per cent of control (AURKB (human)) [%]","kinase still bound, per cent of control (DCLK1 (human)) [%]","kinase still bound, per cent of control [2] [%]","kinase still bound, per cent of control (TXK (human)) [%]","kinase still bound, per cent of control (PRKX (human)) [%]","kinase still bound, per cent of control (EIF2AK2 (human)) [%]","kinase still bound, per cent of control (PIK3CB (human)) [%]","kinase still bound, per cent of control (PTK2 (human)) [%]","kinase still bound, per cent of control (CAMK1G (human)) [%]",further results
CN(C)C/C=C/C(=O)Nc1ccc(C(=O)Nc2cccc(Nc3nccc(-c4cccnc4)n3)c2)cc1,85,23,29,53,100,100,13,88,100,95,76,22,98,15,67,100,50,100,100,64,"kinase still bound, per cent of control (SGK3 (human)): 65%; kinase still bound, per cent of control (TRPM6 (human)): 100%; kinase still bound, per cent of control (ALK (human)): 100%; kinase still bound, per cent of control [3]: 100%; kinase still bound, per cent of control (TYRO3 (human)): 100%; kinase still bound, per cent of control (CDK5 (human)): 100%; kinase still bound, per cent of control (CSNK2A2 (human)): 5.2%; kinase still bound, per cent of control (MAP2K2 (human)): 87%; kinase still bound, per cent of control (STK33 (human)): 100%; kinase still bound, per cent of control [4]: 100%; kinase still bound, per cent of control (EGFR (human)): 100%; kinase still bound, per cent of control (MAP4K3 (human)): 57%; kinase still bound, per cent of control (IRAK4 (human)): 34%; kinase still bound, per cent of control (CAMK2A (human)): 54%; kinase still bound, per cent of control (ROCK2 (human)): 41%; kinase still bound, per cent of control (STK10 (human)): 100%; kinase still bound, per cent of control (BLK (human)): 100%; kinase still bound, per cent of control (SIK2 (human)): 90%; kinase still bound, per cent of control (TBK1 (human)): 38%; kinase still bound, per cent of control (ADCK4 (human)): 98%"
O=C(Nc1cccc(Nc2ncc(Br)c(NCCc3cnc[nH]3)n2)c1)N1CCCC1,7.1,1.8,0.7,6.4,0.4,13,0.5,66,82,100,65,0,35,0,17,0.2,31,100,0.2,28,"kinase still bound, per cent of control (SGK3 (human)): 91%; kinase still bound, per cent of control (TRPM6 (human)): 76%; kinase still bound, per cent of control (ALK (human)): 14%; kinase still bound, per cent of control [3]: 26%; kinase still bound, per cent of control (TYRO3 (human)): 85%; kinase still bound, per cent of control (CDK5 (human)): 24%; kinase still bound, per cent of control (CSNK2A2 (human)): 0%; kinase still bound, per cent of control (MAP2K2 (human)): 0.2%; kinase still bound, per cent of control (STK33 (human)): 0.8%; kinase still bound, per cent of control [4]: 0.25%; kinase still bound, per cent of control (EGFR (human)): 47%; kinase still bound, per cent of control (MAP4K3 (human)): 4.6%; kinase still bound, per cent of control (IRAK4 (human)): 0%; kinase still bound, per cent of control (CAMK2A (human)): 27%; kinase still bound, per cent of control (ROCK2 (human)): 0.55%; kinase still bound, per cent of control (STK10 (human)): 4.6%; kinase still bound, per cent of control (BLK (human)): 0.6%; kinase still bound, per cent of control (SIK2 (human)): 8%; kinase still bound, per cent of control (TBK1 (human)): 0.7%; kinase still bound, per cent of control (ADCK4 (human)): 33%"
